Patent US20040142379A1, “Affinity fishing for ligands and proteins receptors” (Carlsberg Research Laboratory, priority 2003, published 2004)
Entries after “also recorded” stand apart in the source; their conditions may differ. No end group written: not given here.

What was measured:
[1] = test system: E. coli membrane proteins; experiment: Solid phase screening of Library 2 with E. coli membrane proteins; on-bead tryptic digest and protein identification; type: binding, Escherichia coli DH 5α-136; conditions: proteins bound to resin-bound Library 2 ligand; LA low abundance, M inner or outer membrane, P periplasmic space
Procedure: A 400 mL culture of Escherichia coli DH 5α-136 (Carlsberg Research Center Collection) was prepared according to the procedures described in Hanahan, 1985, In: DNA Cloning, Vol 1, Glover, D., ed., IRL Press Ltd, pp. 109-135. Cells were grown from innocula in LB media at 37° C. for 5 to 6 hours and harvested in the latter log phase at an optical density of 0.8 (600 nm) by centrifugation (10,000 rpm for 10 minutes at 4° C.). The media containing extracellular protein was retained and the pellet washed once with PBS, pH 7.6 (cellular weight=2.22 g).
Isolation of E. coli membrane proteins was achieved through modification of published literature procedures: Auer, et al., 2001, Biochemistry, 40:6628-6635, and Molloy, et al., 2000, Eur. J. Biochem. 267:2871-2881. After incubation of E. coli cells for 2 days, washed cells were scraped from plates and centrifuged as described above for Example 10. The cell pellet (approximately 1 g) was suspended in 50 mM Tris HCl, pH 7.5 and pressed (2×) in a French Press at 1500 Psi. The resulting suspension was centrifuged at 2500×g for 10 minutes. The ice cold supernatant was diluted with 2.5 ml of ice-cold 0.1 M sodium carbonate buffer 11 and the solution stirred on ice for 1 hour. Ultracentrifugation was then carried out at 115, 000×g for 1 to 1.5 hours at 4° C., yielding Pellet 1 and Supernatant 1. The membrane pellet 1 was resuspended in 50 mM Tris HCl, pH 7.5 and the pellet was recollected after centrifugation for an additional 20 minutes at 115,000×g, yielding Pellet 2 and supernatant 2. Pellet 2 was solubilized in 50 mM Tris HCl, pH 7.5 containing 10 mM imidazole, 0.5 mM PMSF, 20% glycerol, and 1% Dodecyl Maltoside (DDM) or 33 mM Octyl Glucoside (OG) for 30 minutes at 4° C. The suspension was then centrifuged for 10,000 g for 30 minutes. The pellet and supernatant obtained were labeled Pellet 3 and supernatant 3.
Protein content was determined by checking the absorbance of the protein at 280 nm. The protein concentration in the DDM sample was 0.93 mg/mL, while in the OG sample 0.07 mg/mL protein was obtained.
The protein was labeled with amino reactive succinylanthranilate dye (blue) DDM (0.49 mg dye) and OG (0.03 mg dye) according to the same protocol used in the extracellular labeling described above for Example 12. The labeling stopping reaction (hydroxylamine hydrochloride addition) was not used in this case, to avoid dilution of the protein. The mixture was dialyzed overnight against 10 mM PBS buffer, pH 6.8 containing 0.01 mM ZnCl2, 0.01 mM CaCl2, 0.01 mM MnCl2, and 0.01 mM MnSO4, against a three time buffer change.
The ligand library was then washed, and E. coli labeled membrane protein, prepared as described above for Example 13, was added (0.1 ml). The ligand library and protein mixture was incubated overnight at room temperature.
A typical analysis employed 100-300 laser shots.
Beads containing 40 different specific ligands that bind E. coli protein, the binding ligands isolated by the process described for Example 16 and identified as described for Example 19, were placed into 40 wells of a Multiwell filter plate (Multiscreen DV plates, Millipore). Control beads containing PEGA4000 resin plus the spacer and linker with no ligand compound were used. The binding of unlabeled E. coli proteins was carried out in duplicate. The ligand beads were washed with Millipore water for 3×5 minutes and then with 10 mM PBS buffer (as described for Example 15) for 3×5 minutes under vacuum. Unlabeled E. coli protein, produced as described for Example 13, (400 μg) was added to each well and incubated at room temperature overnight. The next day, the unbound protein solution from each well was removed under suction and the beads were washed with Millipore water and buffer respectively for 3×5 minutes under vacuum.
Protein was cleared from beads containing protein-ligand binding “positive hits” isolated as described for Examples 21 (myocyte proteins) and 22 (E. coli proteins). […]

[2] = test system: six protein mixture: Con A, P. sativum lectin, L. culinaris lectin, W. floribunda lectin, Glyceraldehyde 6-phosphate, and bovine serum albumin (BSA); conditions: proteins eluted from ligand on PEGA6000 resin with 0.5 M mannose and/or N-acetylglucosamine
Procedure: The ligand-resin was washed with 10 mM PBS buffer, pH 6.8 containing 1 mM CaCl2 and 1 mM MnCl2. A mixture of unlabelled proteins, Glycerol-3-phosphate: BSA: Wisteria floribunda: Lens culinaris: Pisatum sativum in a […] weight ratio was dissolved in 10 mM PBS buffer, pH 6.8 containing 1 mM CaCl2 and 1 mM MnCl2 The protein mix (3.5 mL, ca. 1.2 mg protein) was applied to each ligand column and allowed to bind overnight. The column was washed with the same buffer until no more protein was eluted (Abs 280 nm). Bound protein was eluted from the column using 0.5M mannose in 10 mM PBS buffer, pH 8.0 containing CaCl2 and 1 mM MnCl2 (buffer filtered to remove CaOH2 formed) for glycopeptides containing only mannose, 0.5 M N-acetylglucosamine in 10 […] mM PBS buffer, pH 8.0 containing CaCl2 and 1 mM MnCl2 (buffer filtered to remove CaOH2 formed) for glycopeptides containing only GlcNAc, and both buffers for glycopeptides containing both mannose and GlcNAc, or for unglycosylated peptides. Samples were obtained in about 700 μL volume and frozen for later protein identification.

Substance | Identified Protein(s) [1] | Identified Protein(s) [2]
T(Sa)-L-Y-I-F | Colicin, hypothetical membrane protein (M) outer membrane lipoprotein (M),; also recorded: arylsulfatase | 
T(Sa)-L-Y-L-F | Fimbrial protein precursor, alkaline phosphatase (P), cytochrome related proteins (P), | 
T(Sa)-Y-S-M-P | Biotin synthetase, UDP-glucose dehydrogenase, tyrosine protein kinase (LA), fatty; also recorded: acid oxidase complex proteins | 
T(Sa)-H-W-H-I | Mannose-1-phosphate guanyl transferase, isopropyl malate dehydrogenase (M) | 
ManN-ManS-ManN-Trp-Ser-Trp |  | Con A, P. sativum lectin,; also recorded: L. culinaris lectin
T(Sa)-F-A-L-V | Chaperone DnaK, putative hydrolase, transposase | 
ManN-Phe-Trp-Ser-Lys-His |  | Con A, P. sativum lectin
T(Sa)-F-G-I-M | Transposase, transcriptional regulator (LA), GroEL, protein involved in the taurine; also recorded: transport system (M) | 
T(Sa)-W-V-N-M | Transposase, inner membrane protein for phage attachment (M) | 
T(Sa)-M-V-N-W | ATP dependent helicase, mob C | 
GlcNN-Trp-Phe-Asp-Trp-Pro |  | Con A
T(Sa)-I-Y-L-F | Membrane bound ATP synthetase (M), ATP hydrolase | 
T(Sa)-H-W-V-V | Pyruvoyl dependent aspartate decarboxylase, colicin E2, Histidine kinase (M) | 
ManS-Gly-ManS-Asp-Asn-Ala |  | Con A, P. sativum lectin
GlcNN-Val-GlcNN-His-ManS-Gly |  | Con A, P. sativum lectin
T(Sa)-L-S-W-W | NAD-dependent 7-alpha-hydroxysteriod dehydrogenase, homocysteine transferase,; also recorded: nitrate reductase (P), lactate dehydrogenase, citrate synthetase | 
T(Sa)-F-V-W-H | NADH dehydrogenase (M), protein involved in flagellar biosynthesis and motor; also recorded: switching component (M); also recorded: Lysine-arginine-ornithine-binding protein (P), ATP-binding component of glycine-; also recorded: betaine-proline transport protein (P) | 
T(Sa)-G-V-F-L | 50 S ribosomal protein, heme binding lipoprotein (M), regulator for D-glucarate, D- and glycerate and D-galactarate, glutamine tRNA synthetase | 
GPKKYH |  | Con A, P. sativum lectin,; also recorded: L. culinaris lectin
ManS-GIy-GlcNN-Asn-ManS-Tyr |  | Con A, P. sativum lectin,; also recorded: L. culinaris lectin
T(Sa)-F-N-H-S | Phosphate acetyl transferase, acid shock protein, molybdopterin converting factor; also recorded: subunit | 
T(Sa)-H-W-H-L | Chorismate mutase, xanthine dehydrogenase, carbamoyl phosphate synthetase | 
T(Sa)-H-I-G-Y | Fimbrial subunit, outer membrane pyruvate kinase (LA, M) | 
T(Sa)-H-L-G-Y | Protein involved in lipopolysaccharide biosynthesis (M), phosphomannose isomerase | 
T(Sa)-F-G-I-W | Histidine synthetase, aspartate carbamoyl transferase, protein involved in permease; also recorded: transport system (M) | 
T(Sa)-F-G-L-M | Hemolysin C, high affinity potassium transport system (M), quinone oxidoreductase; also recorded: (M), ferrodoxin dependent NA(D)PH oxidoreductase (M) | 
